Experimental data: PMC3383612 (Chemical biology & drug design, 2011)

Experiments:
spASADH [1] = target: T1, spASADH (Streptococcus pneumoniae, UniProt Q8DQ00); settings: in words; ref [14]; cited from earlier work
T1 sequence (Q8DQ00 1-358): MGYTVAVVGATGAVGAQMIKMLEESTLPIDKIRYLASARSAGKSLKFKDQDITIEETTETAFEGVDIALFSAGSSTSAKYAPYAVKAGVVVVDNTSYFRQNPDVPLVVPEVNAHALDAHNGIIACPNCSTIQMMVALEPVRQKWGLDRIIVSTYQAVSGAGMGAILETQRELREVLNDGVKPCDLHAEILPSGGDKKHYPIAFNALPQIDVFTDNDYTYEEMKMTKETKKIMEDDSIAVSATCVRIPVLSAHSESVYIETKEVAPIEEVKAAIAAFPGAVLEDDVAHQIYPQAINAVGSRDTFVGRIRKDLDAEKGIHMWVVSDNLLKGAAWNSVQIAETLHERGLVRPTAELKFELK

spASADH [2] = target: T1, spASADH; assay: Kinetic inhibition of spASADH; type: biochemical
ASADH = ASADH (Vibrio cholerae serotype O1, UniProt Q9KQG2); assay: Kinetic inhibition of ASADH by substrate analogue; type: biochemical; settings: inhibitor of ASADH, enzyme form not stated
Chain of ASADH (Q9KQG2 whole entry): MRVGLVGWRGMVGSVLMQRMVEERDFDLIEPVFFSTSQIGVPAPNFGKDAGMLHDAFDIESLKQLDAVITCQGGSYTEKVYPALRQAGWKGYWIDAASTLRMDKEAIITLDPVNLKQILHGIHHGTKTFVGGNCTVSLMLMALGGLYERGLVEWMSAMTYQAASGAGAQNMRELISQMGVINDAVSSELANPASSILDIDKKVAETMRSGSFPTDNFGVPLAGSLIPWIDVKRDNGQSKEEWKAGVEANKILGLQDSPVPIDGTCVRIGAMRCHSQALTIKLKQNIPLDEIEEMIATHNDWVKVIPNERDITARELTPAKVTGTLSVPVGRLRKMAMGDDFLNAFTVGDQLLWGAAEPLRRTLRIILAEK

With `NC(CCCC(=O)O)C(=O)O` (racemic) [DL-2-aminoadipate] as the compound, how does the inhibitory activity (spASADH [1]) read?
Its inhibitory activity is “little inhibitory activity”.

What does the source list for `Nc1cc(C(=O)O)ccc1C(=O)O` [2-aminoterephthalate]?
Ki (spASADH [2]): 780 µM; enhanced affinity relative to terephthalic acid (spASADH [2]; ratio of Ki values): greater than 6 fold

Which Ki (ASADH) does the source give for `C=CC[S@+]([O-])C[C@H](N)C(=O)O` [S-allyl-L-cysteine sulfoxide] here?
Its Ki is 8 µM.

Which Ki (spASADH [2]) does the source give for `O=C(O)c1ccc(C(=O)O)cc1` [Terephthalic acid, benzene-1,4-dicarboxylic acid] here?
The Ki was ~5000 µM.

For `O=C(O)C1CCC(C(=O)O)CC1` (stereo not drawn) [cyclohexane-1,4-dicarboxylate], which “higher affinity than 2-aminoterephthalate” value (spASADH [2]; ratio of Ki values) is on record?
The value was 2 fold.
